{"source": "patent US20050215978A1", "about": "“Method of enhancing catheter patency using a citrate salt catheter lock solution” (priority 2001, published 2005)", "key": {"bacteremia": {"system": "bacteremia", "experiment": "monthly incidence of bacteremia in outpatient hemodialysis unit by catheter lock solution", "assay_type": "in vivo, human patients"}, "[1]": {"experiment": "urokinase use to open occluded or low-flowing tunneled catheters / clotting of catheters in dialysis unit", "assay_type": "in vivo, human patients", "conditions": "satellite outpatient hospital unit, Jan 1998-May 1999"}}, "data": [{"substance": "heparin", "values": [{"measurement": "incidence of bacteremia, percent of patients in the unit per month", "setting": "bacteremia; RTC unit, 70 patients, about 60% with tunneled catheters, heparin Jan-Jul 1998, citrate locks Sep 1998-Jul 1999, 47% citrate May-Jul 1999", "value": 4.6, "unit": "%"}, {"measurement": "incidence of bacteremia, all other months", "setting": "bacteremia; satellite outpatient hospital unit, 20 ESRD patients, Jan 1998-May 1999", "value": "zero"}, {"measurement": "incidence of bacteremia, percent of all patients, the one month with a case", "setting": "bacteremia; satellite outpatient hospital unit, 20 ESRD patients, Jan 1998-May 1999, one patient in one month", "value": 5, "unit": "%"}, {"measurement": "urokinase use", "setting": "[1]", "value": "remained low"}]}]}
